Assay results taken from paper PMC4685510, “A Cell Biologist’s Field Guide to Aurora Kinase Inhibitors” (Frontiers in Oncology, 2015).

Tests used:
Experiment in all cases: biochemical
Format in all cases: biochemical
[1] = biological target: 363 human kinases (including Aurora A/B/C) (Homo sapiens, UniProt Q05655); settings: PKCd; for remaining activity at 0.1 µM: 100 nM; for remaining activity at 0.1 µM / remaining activity at 0.5 µM: read-out: % Enzyme Activity (relative to DMSO controls)
Excerpt: (§1) However, the Aurora A/B selectivity ratios derived from our in vitro and in vivo data can be compared to prioritize inhibitors.

[2] = biological target: 363 human kinases (including Aurora A/B/C) (Homo sapiens, UniProt O96017); settings: CHK2, [ATP] 20 µM
Sequence of 363 human kinases (including Aurora A/B/C) (Homo sapiens, UniProt O96017) (O96017 whole entry): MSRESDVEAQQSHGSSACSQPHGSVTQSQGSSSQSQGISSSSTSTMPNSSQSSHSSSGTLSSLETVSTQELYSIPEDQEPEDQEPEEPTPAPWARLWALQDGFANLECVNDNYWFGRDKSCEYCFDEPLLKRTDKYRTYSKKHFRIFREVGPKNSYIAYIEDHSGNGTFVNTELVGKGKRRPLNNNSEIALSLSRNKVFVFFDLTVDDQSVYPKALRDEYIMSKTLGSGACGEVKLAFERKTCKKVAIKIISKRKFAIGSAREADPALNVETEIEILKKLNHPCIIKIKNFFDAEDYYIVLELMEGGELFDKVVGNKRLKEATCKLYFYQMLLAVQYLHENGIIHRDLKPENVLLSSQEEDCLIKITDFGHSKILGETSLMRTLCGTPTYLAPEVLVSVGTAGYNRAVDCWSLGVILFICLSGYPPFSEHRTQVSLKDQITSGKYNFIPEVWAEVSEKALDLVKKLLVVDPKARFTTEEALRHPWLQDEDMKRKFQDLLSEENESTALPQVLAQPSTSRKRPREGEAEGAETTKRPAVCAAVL
Excerpt: as §1

[3] = biological target: 363 human kinases (including Aurora A/B/C) (Homo sapiens, UniProt Q9HC98); settings: NEK6; for remaining activity at 0.1 µM: 100 nM; for remaining activity at 0.1 µM / remaining activity at 0.5 µM: read-out: % Enzyme Activity (relative to DMSO controls)
Sequence of 363 human kinases (including Aurora A/B/C) (Homo sapiens, UniProt Q9HC98) (Q9HC98 whole entry): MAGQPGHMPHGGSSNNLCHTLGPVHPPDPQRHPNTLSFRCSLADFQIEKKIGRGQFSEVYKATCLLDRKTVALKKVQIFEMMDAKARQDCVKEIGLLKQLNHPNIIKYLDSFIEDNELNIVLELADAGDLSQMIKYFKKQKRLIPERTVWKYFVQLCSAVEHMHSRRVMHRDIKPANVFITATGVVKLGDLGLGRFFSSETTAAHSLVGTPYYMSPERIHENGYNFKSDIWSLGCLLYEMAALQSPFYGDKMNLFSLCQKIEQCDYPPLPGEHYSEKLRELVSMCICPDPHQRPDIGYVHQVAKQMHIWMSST
Excerpt: as §1

[4] = biological target: T1, 363 human kinases (including Aurora A/B/C) (Homo sapiens, UniProt Q02156); settings: PKCepsilon; for remaining activity at 0.1 µM: 100 nM; for remaining activity at 0.1 µM / remaining activity at 0.5 µM: read-out: % Enzyme Activity (relative to DMSO controls)
T1 sequence (Q02156 1-737): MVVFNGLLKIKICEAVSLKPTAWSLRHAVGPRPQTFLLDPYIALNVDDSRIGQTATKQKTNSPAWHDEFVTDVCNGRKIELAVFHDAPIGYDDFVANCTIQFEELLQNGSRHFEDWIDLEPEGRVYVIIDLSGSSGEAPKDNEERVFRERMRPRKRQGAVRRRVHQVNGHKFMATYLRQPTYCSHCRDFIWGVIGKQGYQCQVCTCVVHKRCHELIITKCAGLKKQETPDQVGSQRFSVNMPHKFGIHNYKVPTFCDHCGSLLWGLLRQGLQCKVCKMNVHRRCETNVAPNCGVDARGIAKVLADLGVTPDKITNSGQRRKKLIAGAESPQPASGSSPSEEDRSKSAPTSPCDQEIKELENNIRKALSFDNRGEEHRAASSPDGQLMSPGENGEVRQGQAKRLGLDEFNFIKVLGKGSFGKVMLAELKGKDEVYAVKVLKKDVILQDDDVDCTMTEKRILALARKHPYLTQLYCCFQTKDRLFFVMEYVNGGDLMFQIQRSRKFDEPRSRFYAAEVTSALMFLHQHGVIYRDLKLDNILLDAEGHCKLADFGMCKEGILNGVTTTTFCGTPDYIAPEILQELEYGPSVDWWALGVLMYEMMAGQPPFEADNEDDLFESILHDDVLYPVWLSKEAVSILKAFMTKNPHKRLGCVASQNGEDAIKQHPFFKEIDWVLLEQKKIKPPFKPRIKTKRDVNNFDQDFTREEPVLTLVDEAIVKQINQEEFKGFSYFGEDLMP
Excerpt: as §1

[5] = biological target: 363 human kinases (including Aurora A/B/C) (Homo sapiens, UniProt P04629); settings: TRKA; for remaining activity at 0.1 µM: 100 nM
Sequence of 363 human kinases (including Aurora A/B/C) (Homo sapiens, UniProt P04629) (P04629 33-796): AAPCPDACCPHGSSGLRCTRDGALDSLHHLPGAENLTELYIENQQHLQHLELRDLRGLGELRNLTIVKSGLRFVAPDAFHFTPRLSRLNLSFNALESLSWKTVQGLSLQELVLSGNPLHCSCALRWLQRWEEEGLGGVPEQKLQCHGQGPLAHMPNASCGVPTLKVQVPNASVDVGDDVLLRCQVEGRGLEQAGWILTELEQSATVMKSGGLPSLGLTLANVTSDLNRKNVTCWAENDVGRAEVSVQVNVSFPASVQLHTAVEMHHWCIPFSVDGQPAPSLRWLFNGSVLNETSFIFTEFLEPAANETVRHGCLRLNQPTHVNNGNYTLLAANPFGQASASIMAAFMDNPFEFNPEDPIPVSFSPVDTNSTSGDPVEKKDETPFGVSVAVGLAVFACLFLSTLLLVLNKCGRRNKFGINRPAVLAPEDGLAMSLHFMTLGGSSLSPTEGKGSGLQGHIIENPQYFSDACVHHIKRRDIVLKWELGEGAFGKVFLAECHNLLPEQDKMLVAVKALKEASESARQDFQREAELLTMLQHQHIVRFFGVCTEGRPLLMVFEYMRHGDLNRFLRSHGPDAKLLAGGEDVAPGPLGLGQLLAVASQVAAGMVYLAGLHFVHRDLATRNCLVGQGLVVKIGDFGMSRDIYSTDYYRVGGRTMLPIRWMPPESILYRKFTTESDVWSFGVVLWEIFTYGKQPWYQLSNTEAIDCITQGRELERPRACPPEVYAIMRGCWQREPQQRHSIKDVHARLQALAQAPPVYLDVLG
Excerpt: as §1

[6] = biological target: T2, 363 human kinases (including Aurora A/B/C) (Homo sapiens, UniProt Q9BZL6); settings: PKD2/PRKD2; for remaining activity at 0.1 µM: 100 nM; for remaining activity at 0.1 µM / remaining activity at 0.5 µM: read-out: % Enzyme Activity (relative to DMSO controls)
T2 sequence (Q9BZL6 1-878): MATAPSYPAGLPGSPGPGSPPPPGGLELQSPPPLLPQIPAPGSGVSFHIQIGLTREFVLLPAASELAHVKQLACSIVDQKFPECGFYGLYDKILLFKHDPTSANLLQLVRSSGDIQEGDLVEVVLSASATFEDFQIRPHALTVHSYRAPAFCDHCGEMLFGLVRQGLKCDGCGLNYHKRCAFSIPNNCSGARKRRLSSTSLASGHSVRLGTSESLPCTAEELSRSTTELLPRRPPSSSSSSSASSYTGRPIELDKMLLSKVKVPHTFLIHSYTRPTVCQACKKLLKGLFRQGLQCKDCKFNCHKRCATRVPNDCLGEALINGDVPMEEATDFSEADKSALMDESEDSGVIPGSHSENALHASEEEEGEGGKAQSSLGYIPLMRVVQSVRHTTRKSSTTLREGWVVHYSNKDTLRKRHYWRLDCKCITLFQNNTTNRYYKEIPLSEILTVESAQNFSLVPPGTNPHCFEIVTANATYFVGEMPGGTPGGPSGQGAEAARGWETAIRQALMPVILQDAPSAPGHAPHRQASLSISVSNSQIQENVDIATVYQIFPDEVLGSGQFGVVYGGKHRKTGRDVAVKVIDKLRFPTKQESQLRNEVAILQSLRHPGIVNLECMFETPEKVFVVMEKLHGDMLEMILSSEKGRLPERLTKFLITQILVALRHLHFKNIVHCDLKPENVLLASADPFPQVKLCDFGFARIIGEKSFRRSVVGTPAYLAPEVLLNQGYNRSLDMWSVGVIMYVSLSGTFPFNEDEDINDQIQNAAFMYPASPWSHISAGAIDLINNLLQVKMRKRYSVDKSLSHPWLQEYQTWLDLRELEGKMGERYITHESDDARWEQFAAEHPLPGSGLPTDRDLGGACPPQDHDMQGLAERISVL
Excerpt: as §1

[7] = biological target: 363 human kinases (including Aurora A/B/C) (Homo sapiens, UniProt P19784); settings: CK2a2, [ATP] 30 µM; for remaining activity at 0.1 µM: 100 nM; for remaining activity at 0.1 µM / remaining activity at 0.5 µM: read-out: % Enzyme Activity (relative to DMSO controls)
Sequence of 363 human kinases (including Aurora A/B/C) (Homo sapiens, UniProt P19784) (P19784 whole entry): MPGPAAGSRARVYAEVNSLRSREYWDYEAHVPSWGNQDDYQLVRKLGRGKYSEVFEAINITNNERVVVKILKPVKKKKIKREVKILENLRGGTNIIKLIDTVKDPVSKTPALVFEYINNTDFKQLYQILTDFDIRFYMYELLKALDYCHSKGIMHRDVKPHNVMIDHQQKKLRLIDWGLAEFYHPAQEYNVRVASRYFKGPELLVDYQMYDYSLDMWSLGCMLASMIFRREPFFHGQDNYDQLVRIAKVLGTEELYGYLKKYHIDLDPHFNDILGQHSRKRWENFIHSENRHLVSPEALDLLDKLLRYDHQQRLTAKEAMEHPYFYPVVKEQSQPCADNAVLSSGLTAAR
Excerpt: as §1

[8] = biological target: T3, 363 human kinases (including Aurora A/B/C) (Homo sapiens, UniProt P51955); settings: NEK2; for remaining activity at 0.1 µM: 100 nM; for remaining activity at 0.1 µM / remaining activity at 0.5 µM: read-out: % Enzyme Activity (relative to DMSO controls)
T3 sequence (P51955 1-445): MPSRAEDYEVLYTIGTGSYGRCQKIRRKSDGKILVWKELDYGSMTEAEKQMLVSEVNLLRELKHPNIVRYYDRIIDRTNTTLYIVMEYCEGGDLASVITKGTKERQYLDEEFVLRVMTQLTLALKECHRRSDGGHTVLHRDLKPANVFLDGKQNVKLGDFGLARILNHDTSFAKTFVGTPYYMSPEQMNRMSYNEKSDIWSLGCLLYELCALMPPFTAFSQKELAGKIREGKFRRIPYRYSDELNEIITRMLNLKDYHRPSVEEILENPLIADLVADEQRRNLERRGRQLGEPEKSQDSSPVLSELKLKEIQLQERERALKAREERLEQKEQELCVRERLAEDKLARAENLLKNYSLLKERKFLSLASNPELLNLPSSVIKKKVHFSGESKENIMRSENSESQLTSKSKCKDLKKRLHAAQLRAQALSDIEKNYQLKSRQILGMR
Excerpt: as §1

[9] = biological target: 363 human kinases (including Aurora A/B/C) (Homo sapiens, UniProt Q16816); settings: PHKg1; for remaining activity at 0.1 µM: 100 nM; for remaining activity at 0.1 µM / remaining activity at 0.5 µM: read-out: % Enzyme Activity (relative to DMSO controls)
Sequence of 363 human kinases (including Aurora A/B/C) (Homo sapiens, UniProt Q16816) (Q16816 whole entry): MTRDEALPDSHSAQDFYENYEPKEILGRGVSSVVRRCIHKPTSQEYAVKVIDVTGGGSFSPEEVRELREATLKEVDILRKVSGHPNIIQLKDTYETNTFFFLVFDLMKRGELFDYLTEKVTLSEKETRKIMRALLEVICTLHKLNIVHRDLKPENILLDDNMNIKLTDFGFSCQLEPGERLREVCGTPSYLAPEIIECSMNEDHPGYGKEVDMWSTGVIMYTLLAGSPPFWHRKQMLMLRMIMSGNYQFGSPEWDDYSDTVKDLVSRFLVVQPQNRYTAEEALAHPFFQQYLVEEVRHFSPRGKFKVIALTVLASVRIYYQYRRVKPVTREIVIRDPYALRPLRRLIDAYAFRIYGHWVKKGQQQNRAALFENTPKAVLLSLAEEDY
Excerpt: as §1

[10] = biological target: 363 human kinases (including Aurora A/B/C) (Homo sapiens, UniProt Q15569); settings: TESK1; for remaining activity at 0.1 µM: 100 nM; for remaining activity at 0.1 µM / remaining activity at 0.5 µM: read-out: % Enzyme Activity (relative to DMSO controls)
Sequence of 363 human kinases (including Aurora A/B/C) (Homo sapiens, UniProt Q15569) (Q15569 whole entry): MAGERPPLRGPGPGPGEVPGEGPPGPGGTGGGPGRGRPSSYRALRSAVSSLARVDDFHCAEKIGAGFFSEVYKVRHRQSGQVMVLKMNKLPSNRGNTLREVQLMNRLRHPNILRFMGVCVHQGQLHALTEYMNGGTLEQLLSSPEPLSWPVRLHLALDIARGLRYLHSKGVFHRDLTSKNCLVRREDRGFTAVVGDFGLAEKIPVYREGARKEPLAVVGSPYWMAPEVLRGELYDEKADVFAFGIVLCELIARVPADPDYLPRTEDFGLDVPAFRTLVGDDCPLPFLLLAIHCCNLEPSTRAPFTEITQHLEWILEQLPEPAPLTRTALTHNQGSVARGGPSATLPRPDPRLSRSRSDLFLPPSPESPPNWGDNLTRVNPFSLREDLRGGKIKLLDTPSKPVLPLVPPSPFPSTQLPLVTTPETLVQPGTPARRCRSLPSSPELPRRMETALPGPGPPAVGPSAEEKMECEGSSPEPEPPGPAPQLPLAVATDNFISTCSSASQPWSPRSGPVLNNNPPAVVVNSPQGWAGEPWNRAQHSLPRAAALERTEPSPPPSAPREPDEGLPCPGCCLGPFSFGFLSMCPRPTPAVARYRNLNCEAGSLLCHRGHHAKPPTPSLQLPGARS
Excerpt: as §1

[11] = biological target: 363 human kinases (including Aurora A/B/C) (Homo sapiens, UniProt O75914); settings: PAK3; for remaining activity at 0.1 µM: 100 nM; for remaining activity at 0.1 µM / remaining activity at 0.5 µM: read-out: % Enzyme Activity (relative to DMSO controls)
Sequence of 363 human kinases (including Aurora A/B/C) (Homo sapiens, UniProt O75914) (O75914 whole entry): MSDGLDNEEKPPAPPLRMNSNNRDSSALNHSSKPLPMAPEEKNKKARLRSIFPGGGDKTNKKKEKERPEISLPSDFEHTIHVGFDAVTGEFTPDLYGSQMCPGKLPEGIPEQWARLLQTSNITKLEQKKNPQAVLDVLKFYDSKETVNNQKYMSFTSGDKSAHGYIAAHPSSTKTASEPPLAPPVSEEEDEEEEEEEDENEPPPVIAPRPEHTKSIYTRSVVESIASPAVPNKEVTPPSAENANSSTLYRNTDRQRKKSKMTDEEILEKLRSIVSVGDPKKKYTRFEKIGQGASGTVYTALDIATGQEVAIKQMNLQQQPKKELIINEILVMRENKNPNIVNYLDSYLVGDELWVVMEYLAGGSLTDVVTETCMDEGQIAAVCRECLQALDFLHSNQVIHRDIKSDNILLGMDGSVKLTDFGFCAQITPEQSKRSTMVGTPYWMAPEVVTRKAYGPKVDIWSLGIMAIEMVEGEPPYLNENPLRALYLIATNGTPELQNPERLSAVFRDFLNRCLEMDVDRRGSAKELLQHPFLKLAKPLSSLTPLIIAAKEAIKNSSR
Excerpt: as §1

[12] = read-out: % Enzyme Activity (relative to DMSO controls)
[13] = 500 nM, read-out: % Enzyme Activity (relative to DMSO controls)

Sequence of 363 human kinases (including Aurora A/B/C) (Homo sapiens, UniProt Q05655) (Q05655 whole entry): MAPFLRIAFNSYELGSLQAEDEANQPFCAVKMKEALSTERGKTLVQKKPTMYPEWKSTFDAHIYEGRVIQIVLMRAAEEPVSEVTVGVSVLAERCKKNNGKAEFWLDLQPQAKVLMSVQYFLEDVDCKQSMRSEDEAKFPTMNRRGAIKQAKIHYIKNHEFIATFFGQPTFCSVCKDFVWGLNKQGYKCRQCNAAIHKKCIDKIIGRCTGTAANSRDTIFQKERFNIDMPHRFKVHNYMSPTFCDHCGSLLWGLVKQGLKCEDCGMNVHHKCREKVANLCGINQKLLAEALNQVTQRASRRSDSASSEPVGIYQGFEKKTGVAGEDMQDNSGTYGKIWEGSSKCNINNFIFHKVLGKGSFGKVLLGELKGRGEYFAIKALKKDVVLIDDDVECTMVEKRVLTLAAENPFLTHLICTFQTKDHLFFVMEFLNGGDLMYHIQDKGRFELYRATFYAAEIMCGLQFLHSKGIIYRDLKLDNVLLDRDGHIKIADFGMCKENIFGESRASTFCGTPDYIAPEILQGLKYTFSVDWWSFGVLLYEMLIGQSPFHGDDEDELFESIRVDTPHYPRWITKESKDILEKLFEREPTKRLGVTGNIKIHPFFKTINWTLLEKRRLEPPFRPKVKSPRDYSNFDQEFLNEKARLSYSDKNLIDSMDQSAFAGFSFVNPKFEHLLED

| SMILES | remaining activity at 0.1 µM [1] [%] | remaining activity at 0.1 µM [3] [%] | remaining activity at 0.1 µM [4] [%] | remaining activity at 0.1 µM [5, 12] [%] | remaining activity at 0.1 µM [6] [%] | remaining activity at 0.1 µM [7] [%] | remaining activity at 0.1 µM [8] [%] | remaining activity at 0.1 µM [9] [%] | remaining activity at 0.1 µM [10] [%] | remaining activity at 0.1 µM [11] [%] | remaining activity at 0.5 µM ([1]; 500 nM) [%] | remaining activity at 0.5 µM [2, 13] [%] | remaining activity at 0.5 µM ([3]; 500 nM) [%] | remaining activity at 0.5 µM ([4]; 500 nM) [%] | remaining activity at 0.5 µM ([6]; 500 nM) [%] | remaining activity at 0.5 µM ([7]; 500 nM) [%] | remaining activity at 0.5 µM ([8]; 500 nM) [%] | remaining activity at 0.5 µM ([9]; 500 nM) [%] | remaining activity at 0.5 µM ([10]; 500 nM) [%] | remaining activity at 0.5 µM ([11]; 500 nM) [%] | also measured |
| --- | --- | --- | --- | --- | --- | --- | --- | --- | --- | --- | --- | --- | --- | --- | --- | --- | --- | --- | --- | --- | --- |
| CCn1cc(-c2ccnc3[nH]c(-c4cccc(CN(C)C)c4)cc23)c(-c2ccc(NC(=O)N(C)C)cc2)n1 [GSK1070916] | 201 | 109 | 102 | 87.7 | 93.3 | 89.1 | 110 | 95.6 | 103 | 92.5 | – | – | – | – | – | – | – | – | – | – | remaining activity at 0.1 µM ([2]; 100 nM, read-out: % Enzyme Activity (relative to DMSO controls)): 99.2% |
| O=C(O)[C@]1(Cc2cccc(Nc3nccs3)n2)CC[C@@H](Oc2cccc(Cl)c2F)CC1 [MK-5108] | 97.8 | 87 | 111 | 8.42 | 98.5 | 87.2 | 84.3 | 99.1 | 97.9 | 92.3 | 201 | 56.2 | 115 | 101 | 101 | 86.5 | 105 | 82 | 99.8 | 88.8 | – |
| O=C(c1cccc(Cl)c1F)N1CCN(Cc2cccc(Nc3nccs3)n2)CC1 [MK-8745] | – | – | – | – | – | – | – | – | – | – | 141 | 93.2 | 102 | 120 | 98.1 | 85.8 | 104 | 93.3 | 99.9 | 94 | % Enzyme Activity (relative to DMSO controls) ([1]; 500 nM): 130.26%; % Enzyme Activity (relative to DMSO controls) ([2]; 500 nM): 91.78%; % Enzyme Activity (relative to DMSO controls) ([3]; 500 nM): 99.72%; % Enzyme Activity (relative to DMSO controls) ([4]; 500 nM): 120.37%; % Enzyme Activity (relative to DMSO controls) ([5]; 500 nM): 32.47%; remaining activity at 0.5 µM [5, 13]: 34.6%; % Enzyme Activity (relative to DMSO controls) ([6]; 500 nM): 96.92%; % Enzyme Activity (relative to DMSO controls) ([7]; 500 nM): 85.44%; % Enzyme Activity (relative to DMSO controls) ([8]; 500 nM): 103.20%; % Enzyme Activity (relative to DMSO controls) ([9]; 500 nM): 90.90%; % Enzyme Activity (relative to DMSO controls) ([10]; 500 nM): 97.82%; % Enzyme Activity (relative to DMSO controls) ([11]; 500 nM): 91.67% |
